Results published in patent US9572786B2, “Use of capsiate or dihydrocapsidate” (Catholic University Industry Academy Cooperation Foundation, priority 2007, dated 2017).

How the values were obtained:
cyclin E = assay: Cyclin expression, Western blotting: cyclin E; format: cell-based, human; conditions: HUVEC; 1, 5, 10, 25 μM; 10 ng/mL VEGF; 12 hours
Protocol: (§1) 3×10^5 HUVEC were placed on a 60 mm plate and cultured for 24 hours. After washing twice with M199 medium (Invitrogen, USA), the cells were cultured in M199 medium containing 1% FBS for 6 hours. After adding capsiate or dihydrocapsiate at different concentrations (1 μM, 5 μM, 10 μM, 25 μM), followed by pre-culturing for 30 minutes, 10 ng/mL VEGF was added and the cells were cultured for 12 hours. The cells were collected and proteins obtained therefrom were quantitated and the expression level of the proteins was identified by Western blotting using antibodies of cyclin D1, cyclin E and cyclin A.

COX-2 = assay: UV-induced COX-2 expression, Western blotting; format: cell-based, human; conditions: HaCaT cells; 10, 25, 50 μM; UV 100 J/m^2; 16 hours
Protocol: In order to investigate the effect of capsiate on UV-induced COX-2 expression in human keratinocytes, 5×10^5 HaCaT cells were placed on a 60 mm Petri dish and cultured for 24 hours in DMEM containing 10% FBS.
Subsequently, the cells were cultured for 24 hours in DMEM containing 1% FBS until starvation. Then, after treating with capsiate for 30 minutes at different concentrations (10 μM, 25 μM, 50 μM), followed by washing 3 times with PBS, UV was irradiated at an intensity of 100 J/m^2 in order to induce the expression of COX-2. Immediately after the UV irradiation, the cells were washed again with PBS and further cultured for 16 hours in DMEM containing 1% FBS, which was treated with capsiate at the same concentration as in the pre-treatment.
Western blotting was carried out as follows in order to evaluate the degree of COX-2 expression in the cells. […]
In order to investigate the effect of dihydrocapsiate on UV-induced COX-2 expression in human keratinocytes, the degree of COX-2 expression was evaluated in the same manner as Example 2-1, except for using dihydrocapsiate instead of capsiate.

cyclin A = assay: Cyclin expression, Western blotting: cyclin A; format: cell-based, human; conditions: HUVEC; 1, 5, 10, 25 μM; 10 ng/mL VEGF; 12 hours
Protocol: as §1

VE-cadherin [1] = assay: Tyrosine phosphorylation of VE-cadherin, Western blotting; format: cell-based, human; conditions: HUVEC; 5, 10, 25 μM; 50 ng/mL VEGF
Protocol: Because VEGF is known to induce tyrosine phosphorylation of VE-cadherin and thereby regulate permeability between endothelial cells by making the intercellular contact loose [Esser S. et al., 1998, J. Cell Sci., 111: 1853-1865], the inhibition effect on tyrosine phosphorylation of VE-cadherin was investigated.
3.5×10^5 HUVEC were placed on a 60 mm plate and cultured for 24 hours. After washing twice with M199 medium (Invitrogen, USA), the cells were cultured in M199 medium containing 1% FBS for 6 hours. After treating with capsiate or dihydrocapsiate at different concentrations (5 μM, 10 μM, 25 μM) for 30 minutes, followed by pre-culturing for 30 minutes, the cells were cultured for 6 hours after adding 50 ng/mL VEGF. Proteins were collected from the cells and, after quantitation, subjected to Western blotting using VE-cadherin antibody in order to identify the level of protein expression.

VE-cadherin [2] = assay: VE-cadherin expression in the intercellular junction, immunofluorescence; format: cell-based, human; conditions: HUVEC; 5, 10, 25 μM pre-treatment; VEGF 50 ng/mL for 1 hour
Protocol: In order to identify if the change of permeability of endothelial cells is related with VE-cadherin, the level of VE-cadherin expression in the intercellular junction was investigated.
HUVEC were placed on a gelatin-coated cover slip at a concentration of 12×10^5 cells/well and cultured for 24 hours. After washing twice with M199 medium, the cells were cultured in M199 medium containing 1% for 6 hours. After treating with capsiate or dihydrocapsiate at different concentrations (5 μM, 10 μM, 25 μM) for 30 minutes, the cells were treated with VEGF (50 ng/mL) for 1 hour. The cells were fixed and made permeable by treating with 2% formaldehyde for 10 minutes, and washed 3 times with PBS. Subsequently, the cells were treated with 0.1% Triton X-100 and 2% bovine serum albumin (BSA)/PBS blocking solution for 30 minutes. After labeling with VE-cadherin at room temperature for 2 hours, followed by washing with PBS, the cells were labeled again with FITC-conjugated secondary antibody at room temperature for 1 hour and 30 minutes. The cover slip was mounted on SloFade (Molecular Probes) and observed under a fluorescence microscope (Carl Zeiss).

HUVEC = assay: Cell cycle analysis by FACS; format: cell-based, human; conditions: 1, 5, 10, 25 μM, 10 ng/mL VEGF, 20 hours
Protocol: In order to identify the mechanism of the inhibition of proliferation of endothelial cells confirmed in Example 9, fluorescence-activated cell sorting (FACS) analysis was carried out on the cells at different phases of cell cycle.
3×10^5 HUVEC were placed on a 60 mm plate and cultured for 24 hours. After washing twice with M199 medium (Invitrogen, USA), the cells were cultured in M199 medium containing 1% FBS for 6 hours. After adding capsiate or dihydrocapsiate at different concentrations (1 μM, 5 μM, 10 μM, 25 μM), followed by pre-culturing for 30 minutes, 10 ng/mL VEGF was added and the cells were cultured for 20 hours. Then, the cells were fixed with ethanol cooled in ice. The fixed cells were dehydrated in PBS containing 2% FBS and 0.1% Tween 20 at 4° C. for 30 minutes. After centrifuge, the cells were lysed in the same buffer solution. After treating with RNase (37° C., 1 hr), followed by staining with propidium iodide, analysis was carried out using a FACS analyzer (FACScan DB PharMingen flow cytometer).

cyclin D1 = assay: Cyclin expression, Western blotting: cyclin D1; format: cell-based, human; conditions: HUVEC; 1, 5, 10, 25 μM; 10 ng/mL VEGF; 12 hours
Protocol: as §1

CD31 = assay: Endothelial cell content in Matrigel plug, CD31 immunohistochemical staining; format: in vivo; conditions: C57/BL6 mouse Matrigel plug; 60 μg; 100 ng VEGF
Protocol: Immunohistochemical staining was carried out using CD31 in order to measure the endothelial cell content in the Matrigel plug.
The Matrigel plug was fixed using 2% formaldehyde and moisture was removed from the Matrigel using 15% sucrose and 30% sucrose based on the principle of osmosis. Then, the Matrigel plug was hardened at −70° C. The hardened Matrigel plug was sliced with a thickness of 8-12 μm, stained with CD31-antibody (PECAM-1 antibody, BD Biosciences, USA) and the level of expression by endothelial cells was observed under a microscope.

Structure (SMILES) | VEGF-increased cyclin E expression in protein level (cyclin E) | UV-induced COX-2 expression (COX-2) | VEGF-increased cyclin A expression in protein level (cyclin A) | VEGF-induced phosphorylation of VE-cadherin (VE-cadherin [1]) | cell adhesion ability of VE-cadherin in the intercellular junction (VE-cadherin [2]) | number of endothelial cells in G1 arrest phase (HUVEC) | VEGF-increased cyclin D1 expression in protein level (cyclin D1) | level of CD31 expression in Matrigel plug (CD31)
COc1cc(COC(=O)CCCCCCC(C)C)ccc1O [dihydrocapsiate] | concentration-dependent decrease | decrease of the increased COX-2 expression in a concentration-dependent manner | concentration-dependent decrease | decreased in a concentration-dependent manner | recovered | increase of the number of endothelial cells in G1 arrest phase | concentration-dependent decrease | decreased to the extent comparable to the control group
COc1cc(COC(=O)CCCC/C=C/C(C)C)ccc1O [capsiate] | concentration-dependent decrease | decreased in a concentration-dependent manner | concentration-dependent decrease | decreased in a concentration-dependent manner | recovered | increase of the number of endothelial cells in G1 arrest phase | concentration-dependent decrease | decreased to the extent comparable to the control group
